Results from patent publication US12268674B2, “Mi-2β inhibitor as an immunotherapy agent” (BioVentures, LLC, priority 2021, dated 2025).

Experiments:
Experiment in all cases: ATPase profile (ATP acyl phosphate probe)
Assay type in all cases: binding
ACACA = molecular target: T1, ACACA (Homo sapiens, UniProt Q13085); details: SEQ ID NO: 20, ATP BS
T1 construct: to get the native cell lysate; host or cells: A375 cell lysate

ACTR3 = molecular target: T2, ACTR3 (Homo sapiens, UniProt P61158)
T2 construct: to get the native cell lysate; host or cells: A375 cell lysate

ALDH18A1 = molecular target: T3, ALDH18A1 (Homo sapiens, UniProt P54886); details: ALDH18A1, SEQ ID NO: 39, ATP BS
T3 construct: to get the native cell lysate; host or cells: A375 cell lysate

ASNA1 = molecular target: T4, ASNA1 (Homo sapiens, UniProt O43681)
T4 construct: to get the native cell lysate; host or cells: A375 cell lysate

ATIC = molecular target: T5, ATIC (Homo sapiens, UniProt P31939); details: SEQ ID NO: 47, ATP BS
T5 construct: to get the native cell lysate; host or cells: A375 cell lysate

BAT1, DDX39 = details: BAT1, DDX39, SEQ ID NO: 50, ATP BS
CCT2 = molecular target: T6, CCT2 (Homo sapiens, UniProt P78371); details: CCT2, SEQ ID NO: 51, ATP BS
T6 construct: to get the native cell lysate; host or cells: A375 cell lysate

CCT7 = molecular target: T7, CCT7 (Homo sapiens, UniProt Q99832); details: CCT7, SEQ ID NO: 55, ATP BS
T7 construct: host or cells: A375 cell lysate

DHX15 = molecular target: T8, DHX15 (Homo sapiens, UniProt O43143); details: DHX15, SEQ ID NO: 72, ATP BS
T8 construct: endogenous in cells; host or cells: A375 cell lysate

GART = molecular target: T9, GART (Homo sapiens, UniProt P22102)
T9 construct: endogenous in cells; host or cells: A375 cell lysate
T9 sequence (P22102 1-1010): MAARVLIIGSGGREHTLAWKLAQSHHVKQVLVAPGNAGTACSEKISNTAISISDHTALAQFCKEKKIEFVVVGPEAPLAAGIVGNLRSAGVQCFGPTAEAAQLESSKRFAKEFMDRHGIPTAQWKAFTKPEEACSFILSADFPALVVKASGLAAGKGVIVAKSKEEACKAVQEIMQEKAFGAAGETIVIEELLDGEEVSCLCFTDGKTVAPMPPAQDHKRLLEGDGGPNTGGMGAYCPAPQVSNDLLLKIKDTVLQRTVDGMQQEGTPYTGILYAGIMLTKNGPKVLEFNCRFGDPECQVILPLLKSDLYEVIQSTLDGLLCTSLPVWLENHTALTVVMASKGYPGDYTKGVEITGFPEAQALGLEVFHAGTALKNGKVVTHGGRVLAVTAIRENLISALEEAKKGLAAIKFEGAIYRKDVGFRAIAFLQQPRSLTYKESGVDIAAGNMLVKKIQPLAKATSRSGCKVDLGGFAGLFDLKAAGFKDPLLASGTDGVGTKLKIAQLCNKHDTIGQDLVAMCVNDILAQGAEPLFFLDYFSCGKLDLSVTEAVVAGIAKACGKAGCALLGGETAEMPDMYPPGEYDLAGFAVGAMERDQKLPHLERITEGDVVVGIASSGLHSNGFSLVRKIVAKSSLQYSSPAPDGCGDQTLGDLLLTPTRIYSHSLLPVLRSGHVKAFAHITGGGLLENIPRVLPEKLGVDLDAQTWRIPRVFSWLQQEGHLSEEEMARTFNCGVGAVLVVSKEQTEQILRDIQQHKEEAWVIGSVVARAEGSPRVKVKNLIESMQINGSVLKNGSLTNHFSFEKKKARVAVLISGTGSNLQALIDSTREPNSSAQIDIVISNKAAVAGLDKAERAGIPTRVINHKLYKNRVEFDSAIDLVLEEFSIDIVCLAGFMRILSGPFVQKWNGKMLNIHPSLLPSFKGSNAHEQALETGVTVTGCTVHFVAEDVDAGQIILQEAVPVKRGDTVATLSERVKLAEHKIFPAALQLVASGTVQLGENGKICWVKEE

HNRNPU = molecular target: T10, HNRNPU (Homo sapiens, UniProt Q00839); details: SEQ ID NO: 92, ATP BS
T10 construct: endogenous in cells; host or cells: A375

MYO1E = molecular target: T11, MYO1E (Homo sapiens, UniProt Q12965); details: SEQ ID NO: 128, ATP BS
T11 construct: to get the native cell lysate; endogenous in cells; host or cells: A375

NUDT2 = molecular target: T12, NUDT2 (Homo sapiens, UniProt P50583)
T12 construct: to get the native cell lysate; endogenous in cells; host or cells: A375

NUDT7 = molecular target: T13, NUDT7 (Homo sapiens, UniProt P0C024); details: NUDT7, SEQ ID NO: 147, ATP BS
T13 construct: to get the native cell lysate; endogenous in cells; host or cells: A375

PMS2 = molecular target: T14, PMS2 (Homo sapiens, UniProt P54278); details: PMS2, SEQ ID NO: 162, ATP BS
T14 construct: to get the native cell lysate; endogenous in cells; host or cells: A375 cell lysate

PRKAG2 = PRKAG2 (Homo sapiens, UniProt Q9UGJ0); details: PRKAG2, SEQ ID NO: 170, ATP BS
QARS = molecular target: T15, QARS (Homo sapiens, UniProt P47897); details: SEQ ID NO: 180, ATP BS
T15 construct: to get the native cell lysate; endogenous in cells; host or cells: A375 cell lysate

RFC5 = molecular target: T16, RFC5 (Homo sapiens, UniProt P40937); details: RFC5, SEQ ID NO: 186, ATP BS
T16 construct: to get the native cell lysate; endogenous in cells; host or cells: A375 cell lysate

UBA6 = molecular target: T17, UBA6 (Homo sapiens, UniProt A0AVT1); details: UBA6, SEQ ID NO: 222, ATP BS
T17 construct: to get the native cell lysate; endogenous in cells; host or cells: A375 cell lysate

XRCC6 = molecular target: T18, XRCC6 (Homo sapiens, UniProt P12956); details: XRCC6, SEQ ID NO: 232, ATP BS
T18 construct: to get the native cell lysate; endogenous in cells; host or cells: A375 cell lysate
T18 sequence (P12956 2-609 limits assumed): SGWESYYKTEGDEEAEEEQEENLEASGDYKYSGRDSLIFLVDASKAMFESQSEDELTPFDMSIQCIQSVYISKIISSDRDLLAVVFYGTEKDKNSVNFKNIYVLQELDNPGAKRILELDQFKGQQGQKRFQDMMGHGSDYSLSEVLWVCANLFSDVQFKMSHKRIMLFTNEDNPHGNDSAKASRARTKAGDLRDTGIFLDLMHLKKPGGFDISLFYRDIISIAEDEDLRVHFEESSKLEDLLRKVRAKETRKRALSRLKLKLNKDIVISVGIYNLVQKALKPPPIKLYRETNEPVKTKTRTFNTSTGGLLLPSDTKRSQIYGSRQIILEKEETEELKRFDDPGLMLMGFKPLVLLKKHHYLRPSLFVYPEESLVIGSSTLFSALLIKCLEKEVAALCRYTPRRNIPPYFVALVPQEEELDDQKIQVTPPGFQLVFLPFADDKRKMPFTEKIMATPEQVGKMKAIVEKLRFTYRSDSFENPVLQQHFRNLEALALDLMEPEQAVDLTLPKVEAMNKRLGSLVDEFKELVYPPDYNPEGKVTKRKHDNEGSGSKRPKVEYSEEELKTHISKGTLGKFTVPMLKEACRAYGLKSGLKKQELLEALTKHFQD
T18 sequence (P13010 2-732 partner limits assumed): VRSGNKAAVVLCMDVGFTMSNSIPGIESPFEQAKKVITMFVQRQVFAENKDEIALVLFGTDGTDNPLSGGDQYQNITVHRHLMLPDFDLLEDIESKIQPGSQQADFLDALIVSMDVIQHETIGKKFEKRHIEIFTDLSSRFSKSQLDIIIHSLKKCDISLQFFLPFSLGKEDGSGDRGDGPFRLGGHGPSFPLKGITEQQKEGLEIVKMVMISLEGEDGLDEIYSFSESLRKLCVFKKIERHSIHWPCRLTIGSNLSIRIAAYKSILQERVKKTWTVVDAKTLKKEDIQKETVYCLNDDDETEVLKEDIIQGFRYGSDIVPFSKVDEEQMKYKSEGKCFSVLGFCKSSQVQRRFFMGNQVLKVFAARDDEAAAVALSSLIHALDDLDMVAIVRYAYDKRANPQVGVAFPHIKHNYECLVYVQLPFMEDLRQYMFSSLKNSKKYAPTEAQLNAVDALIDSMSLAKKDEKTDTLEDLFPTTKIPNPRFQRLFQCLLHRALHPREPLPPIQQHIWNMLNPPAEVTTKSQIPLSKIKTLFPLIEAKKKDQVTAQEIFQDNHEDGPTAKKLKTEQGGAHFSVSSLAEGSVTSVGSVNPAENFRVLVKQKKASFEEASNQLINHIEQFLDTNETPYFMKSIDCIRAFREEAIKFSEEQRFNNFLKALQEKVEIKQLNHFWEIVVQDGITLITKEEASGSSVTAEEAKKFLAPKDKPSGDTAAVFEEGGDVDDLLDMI

T12 sequence (P50583 whole entry): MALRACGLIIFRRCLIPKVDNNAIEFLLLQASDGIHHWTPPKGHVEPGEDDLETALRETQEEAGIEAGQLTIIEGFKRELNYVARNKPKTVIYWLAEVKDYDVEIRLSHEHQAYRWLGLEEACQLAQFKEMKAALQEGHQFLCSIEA
T4 sequence (O43681 whole entry): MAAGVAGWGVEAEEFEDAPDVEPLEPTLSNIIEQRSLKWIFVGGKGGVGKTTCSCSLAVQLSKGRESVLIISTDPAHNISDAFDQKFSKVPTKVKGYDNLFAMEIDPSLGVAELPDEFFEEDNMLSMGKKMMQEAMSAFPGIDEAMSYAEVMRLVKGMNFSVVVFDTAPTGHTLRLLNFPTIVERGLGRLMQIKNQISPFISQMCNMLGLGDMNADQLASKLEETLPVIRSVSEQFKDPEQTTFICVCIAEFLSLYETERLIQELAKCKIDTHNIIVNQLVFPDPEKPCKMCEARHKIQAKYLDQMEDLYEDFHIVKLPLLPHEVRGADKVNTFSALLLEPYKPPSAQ
T10 sequence (Q00839 whole entry): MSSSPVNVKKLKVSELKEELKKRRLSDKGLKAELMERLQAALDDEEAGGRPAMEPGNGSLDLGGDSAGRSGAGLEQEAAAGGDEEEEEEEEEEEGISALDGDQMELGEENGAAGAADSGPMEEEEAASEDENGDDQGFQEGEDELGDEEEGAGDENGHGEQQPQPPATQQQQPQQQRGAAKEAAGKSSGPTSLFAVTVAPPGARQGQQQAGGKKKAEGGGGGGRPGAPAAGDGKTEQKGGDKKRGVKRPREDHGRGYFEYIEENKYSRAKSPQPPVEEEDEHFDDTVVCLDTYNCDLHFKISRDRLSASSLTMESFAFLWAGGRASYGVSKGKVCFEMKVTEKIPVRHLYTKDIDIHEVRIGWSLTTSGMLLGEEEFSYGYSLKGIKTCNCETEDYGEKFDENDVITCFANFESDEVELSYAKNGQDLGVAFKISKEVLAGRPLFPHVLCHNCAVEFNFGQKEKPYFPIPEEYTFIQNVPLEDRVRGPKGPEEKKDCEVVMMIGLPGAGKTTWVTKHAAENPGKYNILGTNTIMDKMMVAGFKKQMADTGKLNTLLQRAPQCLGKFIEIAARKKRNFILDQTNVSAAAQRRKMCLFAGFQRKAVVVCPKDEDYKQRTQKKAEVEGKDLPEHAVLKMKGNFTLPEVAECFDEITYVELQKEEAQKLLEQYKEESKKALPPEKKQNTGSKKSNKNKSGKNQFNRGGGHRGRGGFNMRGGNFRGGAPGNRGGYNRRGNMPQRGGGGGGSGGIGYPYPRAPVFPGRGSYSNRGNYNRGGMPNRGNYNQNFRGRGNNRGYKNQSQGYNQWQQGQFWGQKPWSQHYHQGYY
T14 sequence (P54278 whole entry): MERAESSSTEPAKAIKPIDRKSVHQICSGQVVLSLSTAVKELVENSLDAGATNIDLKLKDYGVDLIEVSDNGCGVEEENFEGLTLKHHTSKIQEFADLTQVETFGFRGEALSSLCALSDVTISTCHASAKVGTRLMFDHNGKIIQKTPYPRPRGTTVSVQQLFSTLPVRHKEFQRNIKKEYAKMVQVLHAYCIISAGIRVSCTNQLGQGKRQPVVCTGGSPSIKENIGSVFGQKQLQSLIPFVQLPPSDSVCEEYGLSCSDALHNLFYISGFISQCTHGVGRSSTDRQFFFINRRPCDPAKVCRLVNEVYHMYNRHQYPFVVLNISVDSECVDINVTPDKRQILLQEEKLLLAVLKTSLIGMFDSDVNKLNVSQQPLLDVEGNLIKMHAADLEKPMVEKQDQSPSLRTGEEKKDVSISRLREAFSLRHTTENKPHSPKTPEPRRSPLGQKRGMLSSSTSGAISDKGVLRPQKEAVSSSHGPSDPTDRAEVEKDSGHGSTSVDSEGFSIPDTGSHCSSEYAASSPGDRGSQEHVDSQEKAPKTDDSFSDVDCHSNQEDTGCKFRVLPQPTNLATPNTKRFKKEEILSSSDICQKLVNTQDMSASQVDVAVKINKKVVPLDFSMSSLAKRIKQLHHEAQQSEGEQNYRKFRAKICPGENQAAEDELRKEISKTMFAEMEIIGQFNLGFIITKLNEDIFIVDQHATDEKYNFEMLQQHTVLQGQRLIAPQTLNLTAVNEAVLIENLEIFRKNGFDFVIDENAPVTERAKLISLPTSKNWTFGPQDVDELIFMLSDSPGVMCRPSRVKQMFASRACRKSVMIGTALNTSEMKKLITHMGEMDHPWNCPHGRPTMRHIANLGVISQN
T17 sequence (A0AVT1 whole entry): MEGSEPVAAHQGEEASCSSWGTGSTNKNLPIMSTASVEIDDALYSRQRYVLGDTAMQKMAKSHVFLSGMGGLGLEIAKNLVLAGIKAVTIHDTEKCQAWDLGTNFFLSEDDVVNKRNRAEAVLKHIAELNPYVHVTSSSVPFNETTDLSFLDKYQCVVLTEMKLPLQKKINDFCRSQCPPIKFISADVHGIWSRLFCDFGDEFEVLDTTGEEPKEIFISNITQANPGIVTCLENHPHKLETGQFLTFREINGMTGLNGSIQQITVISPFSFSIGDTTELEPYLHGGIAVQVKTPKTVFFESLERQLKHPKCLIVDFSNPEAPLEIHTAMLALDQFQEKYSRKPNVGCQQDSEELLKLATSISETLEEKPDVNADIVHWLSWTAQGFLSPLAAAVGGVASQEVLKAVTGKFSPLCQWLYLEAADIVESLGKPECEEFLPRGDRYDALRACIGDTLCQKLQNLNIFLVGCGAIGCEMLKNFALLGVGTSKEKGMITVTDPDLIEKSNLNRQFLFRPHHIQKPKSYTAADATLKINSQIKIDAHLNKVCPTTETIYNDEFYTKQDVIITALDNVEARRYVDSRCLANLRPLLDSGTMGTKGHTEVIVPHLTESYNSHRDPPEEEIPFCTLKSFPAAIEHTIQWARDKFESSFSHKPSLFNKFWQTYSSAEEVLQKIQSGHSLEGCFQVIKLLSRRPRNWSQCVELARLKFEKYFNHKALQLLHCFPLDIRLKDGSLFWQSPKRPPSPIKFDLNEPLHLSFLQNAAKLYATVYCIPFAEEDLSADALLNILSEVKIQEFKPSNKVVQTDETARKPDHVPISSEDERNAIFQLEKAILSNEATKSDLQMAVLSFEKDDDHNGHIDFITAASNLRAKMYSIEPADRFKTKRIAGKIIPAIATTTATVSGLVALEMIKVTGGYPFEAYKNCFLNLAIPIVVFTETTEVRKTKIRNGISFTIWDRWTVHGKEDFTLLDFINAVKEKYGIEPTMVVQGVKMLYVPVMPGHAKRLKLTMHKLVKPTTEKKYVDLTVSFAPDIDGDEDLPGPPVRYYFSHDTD
T13 sequence (P0C024 whole entry): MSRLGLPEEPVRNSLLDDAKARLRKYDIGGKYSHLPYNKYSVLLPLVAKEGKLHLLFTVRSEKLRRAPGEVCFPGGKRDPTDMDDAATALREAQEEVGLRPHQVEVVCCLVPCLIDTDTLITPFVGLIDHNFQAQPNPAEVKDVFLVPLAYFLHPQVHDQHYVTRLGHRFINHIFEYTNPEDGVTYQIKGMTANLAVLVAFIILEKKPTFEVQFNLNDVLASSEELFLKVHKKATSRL

## Cn1c(=O)[nH]c2ccc(-c3cccc(C(=O)NC4CCn5ccnc5C4)c3)cc21 (stereo not shown) [Z36-MP5, 3-(3-methyl-2-oxo-2,3-dihydro-1H-benzo[d]imidazol-5-yl)-N-(5,6,7,8-tetrahydroimidazo[1,2-a]pyridin-7-yl)benzamide]
ACACA
  Inhibition (%) by 1 μM Z36-MP5: 6.21%
ACTR3; ACTR3, SEQ ID NO: 27, ATP BS
  Inhibition (%) by 1 μM Z36-MP5: 5.36%
ACTR3; ACTR3, SEQ ID NO: 28, ATP BS
  Inhibition (%) by 1 μM Z36-MP5: −0.28%
ALDH18A1
  Inhibition (%) by 1 μM Z36-MP5: −6.95%
ASNA1; ASNA1, SEQ ID NO: 41, ATP BS
  Inhibition (%) by 1 μM Z36-MP5: −3.04%
ASNA1; ASNA1, SEQ ID NO: 42, ATP BS
  Inhibition (%) by 1 μM Z36-MP5: 0.73%
ATIC
  Inhibition (%) by 1 μM Z36-MP5: 4.08%
BAT1, DDX39
  Inhibition (%) by 1 μM Z36-MP5: −10.93%
CCT2
  Inhibition (%) by 1 μM Z36-MP5: −6.50%
CCT7
  Inhibition (%) by 1 μM Z36-MP5: 10.91%
DHX15
  Inhibition (%) by 1 μM Z36-MP5: −5.22%
GART; SEQ ID NO: 80, ATP BS
  Inhibition (%) by 1 μM Z36-MP5: −8.85%
GART; SEQ ID NO: 81, ATP BS
  Inhibition (%) by 1 μM Z36-MP5: −7.56%
GART; SEQ ID NO: 82, ATP BS
  Inhibition (%) by 1 μM Z36-MP5: −2.13%
HNRNPU
  Inhibition (%) by 1 μM Z36-MP5: 6.85%
MYO1E
  Inhibition (%) by 1 μM Z36-MP5: 4.66%
NUDT2; NUDT2, SEQ ID NO: 145, ATP BS
  Inhibition (%) by 1 μM Z36-MP5: 19.18%
NUDT2; NUDT2, SEQ ID NO: 146, ATP BS
  Inhibition (%) by 1 μM Z36-MP5: 11.64%
NUDT7
  Inhibition (%) by 1 μM Z36-MP5: 19.75%
PMS2
  Inhibition (%) by 1 μM Z36-MP5: 3.36%
PRKAG2
  Inhibition (%) by 1 μM Z36-MP5: −22.54%
QARS
  Inhibition (%) by 1 μM Z36-MP5: −7.77%
RFC5
  Inhibition (%) by 1 μM Z36-MP5: 2.11%
UBA6
  Inhibition (%) by 1 μM Z36-MP5: 3.60%
XRCC6
  Inhibition (%) by 1 μM Z36-MP5: 10.61%
